≈ marks a conversion by molar mass, not a printed value. Where “and” joins values, the source holds several entries; their conditions need not be identical. Equal entries are not always repeated.
Tests used:
Trypanosoma cruzi [1] = experiment: (§1) DNDI: Chagas in Vitro; format: functional, organism-based, Tulahuen C4 (LacZ)
Trypanosoma cruzi [2] = experiment: as §1; format: functional, Tulahuen C4 (LacZ)
[3] = (§2) DNDI: Cytotoxicity in vitro, against rat skeletal myoblast (L-6) cells; settings: L-6 cells (skeletal myoblasts), IC50
Cytochrome P450 3A4 = Cytochrome P450 3A4 (Homo sapiens, UniProt P08684); experiment: DNDI: Human CYP3A4 inhibition determined using 6b-hydroxylation of testosterone
Sequence of Cytochrome P450 3A4 (P08684 whole entry): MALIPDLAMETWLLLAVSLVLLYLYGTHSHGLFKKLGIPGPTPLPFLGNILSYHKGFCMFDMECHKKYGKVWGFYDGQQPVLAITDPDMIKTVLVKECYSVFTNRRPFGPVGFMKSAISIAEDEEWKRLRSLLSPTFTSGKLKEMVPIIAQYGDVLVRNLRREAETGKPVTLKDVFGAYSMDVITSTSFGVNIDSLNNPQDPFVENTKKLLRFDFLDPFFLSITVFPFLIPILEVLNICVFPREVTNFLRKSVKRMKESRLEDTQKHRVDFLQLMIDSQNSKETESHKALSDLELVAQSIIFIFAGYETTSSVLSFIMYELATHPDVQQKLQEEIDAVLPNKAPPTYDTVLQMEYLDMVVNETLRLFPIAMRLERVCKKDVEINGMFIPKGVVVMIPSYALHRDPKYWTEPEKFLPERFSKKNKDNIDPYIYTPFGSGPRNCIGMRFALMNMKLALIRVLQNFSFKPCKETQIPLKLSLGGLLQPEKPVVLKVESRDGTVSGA

[4] = DNDI: Lipophilicity (gLogD) at pH 3; settings: buffer, pH 3, logD
[5] = DNDI: Lipophilicity (gLogD) at pH 7.4; settings: buffer, pH 7.4, logD
[6] = DNDI: Solubility in 0.01M HCl at pH 2 determined by nephelometry; settings: 0.01M HCl, pH 2, Kinetic
in vitro [7] = settings: human, microsomes
in vitro [8] = settings: human, microsomes, EH
in vitro [9] = settings: human, microsomes, t (1 / 2)
[10] = DNDI: Solubility in phosphate buffer at pH 6.5 determined by nephelometry; settings: phosphate buffer, pH 6.5, Kinetic
[11] = tested on: Trypanosoma brucei rhodesiense; experiment: DNDI: HAT in Vitro; format: functional, organism-based, ATCC 30027; settings: Trypanosoma brucei, ATCC 30027
L6 = experiment: as §2; settings: L-6 cells (skeletal myoblasts)
[12] = Trypanosoma cruzi, Tulahuen C4 (LacZ)

Compound | IC50 (Trypanosoma cruzi [1]; [12]) | IC90 (Trypanosoma cruzi [2]; [12]) | IC50 [3] | IC50 (Cytochrome P450 3A4) | chromatographic logD [4] | chromatographic logD [5] | solubility kinetic [6] | microsomal CLint (in vitro [7]) | hepatic extraction ratio (in vitro [8]) | half-life (in vitro [9]) | solubility kinetic [10] | IC50 [11] | IC90 (Trypanosoma cruzi [2]) | IC50 (L6) | IC50 (Trypanosoma cruzi [1])
CO/N=C(\C)c1ccc(-n2ccnc2)c(NC(=O)c2ccc(-c3ccccn3)cc2)c1 | > 1000 nM | > 1000 nM | > 100000 nM |  |  |  |  |  |  |  |  |  |  |  | 
CO/N=C(\C)c1ccc(-n2ccnc2)c(NC(=O)c2ccc(-c3cccs3)nc2)c1 | 2.7 nM | 9.5 nM | > 100000 nM | 1400 nM | 2.4 | 3.2 | > 100 µg/mL | 102 µL/min/mg | 0.8 | 17 min |  |  |  |  | 
O=C(C1CC1)N(Cc1cccnc1)c1cc(F)cc(-c2nc3ccccc3s2)c1 | 20 nM | 62.5 nM | 76900 nM |  | 3.04 | 4.49 | 66.9 µg/mL (≈ 166 µM) | 1320 µL/min/mg |  | 1.3 min | 6.65 µg/mL (≈ 16.5 µM) |  |  |  | 
CCN(c1ccccc1)S(=O)(=O)c1ccc(Cl)c(NC(=O)CNC2CCCN(C)C2)c1.O=CO (configuration not stated) | > 1000 nM | > 1000 nM | 45700 nM | 16300 nM | -0.12 | 1.56 | 101 µg/mL | 89 µL/min/mg | 0.815 | 19.5 min | 94.4 µg/mL | 910 nM |  |  | 
CCN(c1ccccc1)S(=O)(=O)c1ccc(Cl)c(NC(=O)CN(C)C2CCN(C)CC2)c1 |  |  | 51500 nM |  |  |  |  |  |  |  |  | 5430 nM | > 10000 nM | 54100 nM | 
CC(=O)N(Cc1c[nH]cn1)c1ccc(-c2ccc(F)cc2)cc1F |  |  | 69900 nM |  |  |  |  |  |  |  |  |  |  |  | 
O=C(C1CC1)N(Cc1cccnc1)c1cccc(-c2nc3ccccc3s2)c1 | 29 nM | > 100 nM | 60600 nM |  | 3.4 | 4 | > 100 µg/mL | 380 µL/min/mg |  | 5 min |  | > 10000 nM |  |  | 
CCS(=O)(=O)N(Cc1cccnc1)c1cncc(-c2nc3ccccc3s2)c1 | 13.5 nM | 355 nM | > 100000 nM | 1040 nM | 1.89 | 3.19 | > 82.1 µg/mL | 559 µL/min/mg | 0.965 | 3.1 min | 13 µg/mL (≈ 31.8 µM) |  |  |  | 
CC(=O)N(Cc1cnc[nH]1)c1cc(F)cc(-c2nc3ccccc3s2)c1 | 486 nM | 941 nM | > 100000 nM |  |  |  |  |  |  |  |  |  | > 1000 nM |  | 534 nM
O=C(Nc1ccccc1-n1ccnc1)c1cnc(-c2ccccc2)s1 | 4.9 nM | 10 nM |  |  |  |  |  |  |  |  |  |  |  |  | 3.2 nM and 3.8 nM
O=C(C1CC1)N(Cc1cccnc1)c1cncc(-c2nc3ccccc3s2)c1 | 12.9 nM | 34 nM |  |  |  |  |  |  |  |  |  |  |  |  | 
CCS(=O)(=O)N(Cc1cccnc1)c1cccc(-c2nc3ccccc3s2)c1 | 23 nM | 58.5 nM | > 100000 nM | < 250 nM | 3.2 | 3.6 | > 100 µg/mL | 346 µL/min/mg | 0.93 | 5 min |  | > 10000 nM |  |  | 
O=C(NCCc1cnc[nH]1)c1cnc(-c2ccccc2)cn1 |  |  |  | 16000 nM | 1.3 | 2.1 | > 100 µg/mL | < 7 µL/min/mg | < 0.23 | > 250 min |  | > 10000 nM |  |  | 
CC(=O)N(Cc1cccnc1)c1ccc(-c2ccc(F)cc2)cc1F | 53.5 nM | 184 nM |  |  |  |  |  |  |  |  |  |  |  |  | 
CN(C)S(=O)(=O)c1ccc(-n2ccnc2)c(NC(=O)c2cnc(-c3ccccc3)s2)c1 | 13 nM | 87 nM | > 100000 nM | 10000 nM | 2.4 | 3 | > 100 µg/mL | 79 µL/min/mg | 0.75 | 22 min |  | > 10000 nM |  |  | 
CS(=O)(=O)N(Cc1cccnc1)c1ccc(-c2nc3ccccc3s2)cc1 | 40.5 nM | 91 nM | > 100000 nM |  |  |  |  |  |  |  |  |  |  |  | 
CS(=O)(=O)N(Cc1cnc[nH]1)c1cc(F)cc(-c2nc3ccccc3s2)c1 | 70 nM | 615 nM | 66900 nM |  |  |  |  |  |  |  |  |  | 569 nM and > 1000 nM | 63900 nM | 65 nM and 74 nM
CCOC(COc1ccc2cc(Br)ccc2c1)Cn1ccnc1.O=CO (configuration not stated) | 16 nM | 59 nM | 44200 nM | < 250 nM | 3.3 | 4.5 | > 100 µg/mL | 14 µL/min/mg | 0.36 | 120 min | 12.5 µg/mL | > 10000 nM |  |  | 
